The values below come from ChEMBL document CHEMBL3638567, “2-heteroaryl carboxamides” (2015).

The experiment deals with Neuronal acetylcholine receptor subunit alpha-7 (Rattus norvegicus, UniProt Q05941). Kind of experiment: Binding Assay: The [3H]-methyllycaconitine binding assay is a modification of the method described by Davies et al. in Neuropharmacol. 1999, 38, 679-690.Rat brain tissue (hippocampus or whole brain) is homogenized in homogenization buffer (10% w/v, 0.32 M sucrose, 1 mM EDTA, 0.1 mM phenylmethylsulphonyl fluoride (PMSF), 0.01% (w/v) NaN3, pH 7.4, 4 C.) at 600 rpm in a glass homogenizer. The homogenate is centrifuged (1000xg, 4 C., 10 min) and the supernatant is removed. The pellet is resuspended (20% w/v) and the suspension is centrifuged (1000xg, 4 C., 10 min). The two supernatants are combined and centrifuged (15 000xg, 4 C., 30 min). The pellet obtained in this way is referred to as the P2 fraction.The P2 pellet is suspended in binding buffer (50 mM Tris-HCl, 1 mM MgCl2, 120 mM NaCl, 5 mM KCl, 2 mM CaCl2, pH 7.4), and the suspension is centrifuged (15 000xg, 4 C., 30 min), twice.The residue is resuspended in binding buffer and incubated in a volume of 250 ul. The experiment is classed as tissue-based.
Chain of Neuronal acetylcholine receptor subunit alpha-7 (Q05941 whole entry): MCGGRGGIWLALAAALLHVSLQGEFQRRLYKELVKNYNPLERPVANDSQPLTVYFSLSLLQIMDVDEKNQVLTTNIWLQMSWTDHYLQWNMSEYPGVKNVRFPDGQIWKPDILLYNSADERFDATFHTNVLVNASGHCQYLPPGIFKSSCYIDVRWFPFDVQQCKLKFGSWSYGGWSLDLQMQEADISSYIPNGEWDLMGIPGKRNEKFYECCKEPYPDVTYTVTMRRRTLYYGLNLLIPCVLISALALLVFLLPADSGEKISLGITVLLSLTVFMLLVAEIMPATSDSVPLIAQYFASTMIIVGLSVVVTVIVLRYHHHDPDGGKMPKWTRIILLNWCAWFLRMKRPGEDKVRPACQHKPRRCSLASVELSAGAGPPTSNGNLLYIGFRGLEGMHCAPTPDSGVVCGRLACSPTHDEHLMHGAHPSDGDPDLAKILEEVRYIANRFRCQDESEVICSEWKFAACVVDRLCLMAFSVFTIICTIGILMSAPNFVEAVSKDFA
For the compound `O=C(NC1CC1)c1cccc(-c2cccc3cc(C(=O)N[C@H]4CN5CCC4CC5)oc23)c1`, the Ki came out at 3 nM.

On to `CN1CCN(C(=O)c2cccc(-c3cccc4cc(C(=O)N[C@H]5CN6CCC5CC6)oc34)c2)CC1`, for which the Ki was 14 nM.

As to `CNC(=O)NCc1ccccc1-c1cccc2cc(C(=O)N[C@H]3CN4CCC3CC4)sc12`, the Ki came to 3.3 nM.
